Data taken from patent publication US12643879B2, “Functionalized heterocyclic compounds as modulators of stimulator of interferon genes (STING)” (RYVU THERAPEUTICS S.A., priority 2019, dated 2026).
Read-outs that look alike come from different tables or passages of the source.

What was measured:
[1] = tested on: NF-κB pathway in THP-1 dual cells; assay: THP-1 Dual reporter assay, NF-κB pathway (SEAP); assay type: cell-based; settings: Homo sapiens, THP1-Dual, read-out: THP1 Dual EC50 (μM) NFkB
Procedure, shortened: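 IRF output: ISRE-ISG54 luciferase in collected medium, luminescence measured immediately on reagent addition. NF-κB output: SEAP under NF-κB-element IFN-β promoter, detection medium 1 or 2 h at 37° C, absorbance 630 or 655 nm. Cells were stimulated with STING agonist for 18 h beforehand.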

[2] = tested on: interferon regulatory factor (IRF) pathway in THP-1 dual cells; assay: THP-1 Dual reporter assay, IRF pathway (luciferase); assay type: cell-based; settings: Homo sapiens, THP1-Dual, read-out: THP1 Dual EC50 (μM) IRF
Procedure, shortened: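 After 18 h exposure of THP-1 dual cells to the STING agonist compounds, culture medium was collected. Part was mixed with luminescence reagent and read at once for IRF-driven luciferase; another part was incubated with SEAP detection medium for 1 or 2 hours at 37° C before absorbance at 630 or 655 nm.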

[3] = biological target: human STING (Homo sapiens, UniProt Q86WV6); assay: Fluorescence Thermal Shift assay (binding to STING); settings: STING 0.1 mg/mL, SyproOrange, 25 to 99° C.
Procedure: Compounds, constructs and conjugates of the present invention were tested for binding to human STING in Fluorescence Thermal Shift assay. STING was preincubated with the compounds for 20 minutes in 50 mM Hepes, 150 mM NaCl, pH 7.5 in 15 or 16 μl volume, following by adding 4 μl of SyproOrange dye dilution (ThermoFisher, cat no. S-6651). Final STING concentration was 0.1 mg/mL. Thermal unfolding was performed in Real-Time PCR QuantStudio 6 Flex System (Applied Biosystems), from 25 to 99° C., with continuous ramp mode and ramp rate 0.033° C./s. The data were analyzed using Protein Thermal Shift Software (ThermoFisher).

[4] = 18 h stimulation, absorbance at 630 or 655 nm

Chain of human STING (Q86WV6 whole entry H232R): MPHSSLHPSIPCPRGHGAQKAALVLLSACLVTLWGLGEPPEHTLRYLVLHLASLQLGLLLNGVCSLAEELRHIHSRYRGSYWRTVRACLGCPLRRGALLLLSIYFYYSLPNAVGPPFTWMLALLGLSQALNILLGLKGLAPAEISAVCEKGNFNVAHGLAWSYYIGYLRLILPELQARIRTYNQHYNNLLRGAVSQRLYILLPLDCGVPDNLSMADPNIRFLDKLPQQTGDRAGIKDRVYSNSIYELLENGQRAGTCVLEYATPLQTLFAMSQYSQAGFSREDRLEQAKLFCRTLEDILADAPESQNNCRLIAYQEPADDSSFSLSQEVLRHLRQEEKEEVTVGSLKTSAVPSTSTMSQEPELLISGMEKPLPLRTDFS

| EC50 [1, 4] [µM] | EC50 ([2]; 18 h stimulation, luminescence) [µM] | hSTING FTS binding assay (ΔT C. °) [3] | SMILES | EC50 ([1]; 18 h) [µM] | EC50 ([2]; 18 h) [µM] |
| --- | --- | --- | --- | --- | --- |
| < 1 | < 1 | +++ (+++=ΔTm ≥20° C.) | Cc1ccc(N2CCC[C@H](N(Cc3ccnc(N)c3)Cc3cn(C4CC4)c4cc(F)c(F)cc4c3=O)C2)cn1.Cl [Example 5, 3-({[(2-Aminopyridin-4-yl)methyl][(3S)-1-(6-methylpyridin-3-yl)piperidin-3-yl]amino}methyl)-1-cyclopropyl-6,7-difluoro-1,4-dihydroquinolin-4-one hydrochloride] |  |  |
| < 1 | < 1 | +++ (+++=ΔTm ≥20° C.) | Cc1ccc(N2CCC[C@H](N(Cc3ccnc(C)c3)Cc3cn(C4CC4)c4cc(N5CCC[C@@H](N)C5)c(F)cc4c3=O)C2)cn1 [Example 17, 7-[(3R)-3-Aminopiperidin-1-yl]-1-cyclopropyl-6-fluoro-3-({[(3S)-1-(6-methylpyridin-3-yl)piperidin-3-yl][(2-methylpyridin-4-yl)methyl]amino}methyl)-1,4-dihydroquinolin-4-one] |  |  |
| < 1 | < 1 | +++ (+++=ΔTm ≥20° C.) | Cc1ccc(N2CCC[C@H](N(Cc3ccnc(C)c3)Cc3cn(C4CC4)c4cc(N5CC[C@@H](O)C5)c(F)cc4c3=O)C2)cn1.Cl [Example 14, 1-Cyclopropyl-6-fluoro-7-[(3R)-3-hydroxypyrrolidin-1-yl]-3-({[(3S)-1-(6-methylpyridin-3-yl)piperidin-3-yl][(2-methylpyridin-4-yl)methyl]amino}methyl)-1,4-dihydroquinolin-4-one hydrochloride] |  |  |
| < 1 | < 1 | +++ (+++=ΔTm ≥20° C.) | Cc1ccc(N2CCC[C@H](N(Cc3ccnc(C)c3)Cc3cn(C4CC4)c4cc(N5CC[C@@H](N)C5)c(F)cc4c3=O)C2)cn1.Cl [Example 12, 7-[(3R)-3-Aminopyrrolidin-1-yl]-1-cyclopropyl-6-fluoro-3-({[(3S)-1-(6-methylpyridin-3-yl)piperidin-3-yl][(2-methylpyridin-4-yl)methyl]amino}methyl)-1,4-dihydroquinolin-4-one hydrochloride] |  |  |
| < 1 | < 1 | +++ (+++=ΔTm ≥20° C.) | CNC1CCN(c2cc3c(cc2F)c(=O)c(CN(Cc2ccnc(C)c2)[C@H]2CCCN(c4ccc(C)nc4)C2)cn3C2CC2)CC1.Cl [Example 19, 1-cyclopropyl-6-fluoro-7-[4-(methylamino)piperidin-1-yl]-3-({[(3S)-1-(6-methylpyridin-3-yl)piperidin-3-yl][(2-methylpyridin-4-yl)methyl]amino}methyl)-1,4-dihydroquinolin-4-one hydrochloride] |  |  |
| < 1 | < 1 | +++ (+++=ΔTm ≥20° C.) | Cc1ccc(N2CCC[C@H](N(Cc3ccnc(C)c3)Cc3cn(C4CC4)c4cc(N5CCC[C@H](N)C5)c(F)cc4c3=O)C2)cn1 [Example 16, 7-[(3S)-3-Aminopiperidin-1-yl]-1-cyclopropyl-6-fluoro-3-({[(3S)-1-(6-methylpyridin-3-yl)piperidin-3-yl][(2-methylpyridin-4-yl)methyl]amino}methyl)-1,4-dihydroquinolin-4-one] |  |  |
| < 1 | < 1 | +++ (+++=ΔTm ≥20° C.) | Cc1cc(CN(Cc2cn(C3CC3)c3cc(N4CCC[C@H](O)C4)c(F)cc3c2=O)[C@H]2CCCN(c3cccnc3)C2)ccn1.Cl [Example 86, 1-cyclopropyl-6-fluoro-7-[(3S)-3-hydroxypiperidin-1-yl]-3-({[(2-methylpyridin-4-yl)methyl][(3S)-1-(pyridin-3-yl)piperidin-3-yl]amino}methyl)-1,4-dihydroquinolin-4-one hydrochloride] |  |  |
| < 1 | < 1 | +++ (+++=ΔTm ≥20° C.) | CN[C@@H]1CCN(c2cc3c(cc2F)c(=O)c(CN(Cc2ccnc(C)c2)[C@H]2CCCN(c4ccc(C)nc4)C2)cn3C2CC2)C1.Cl [Example 55, 1-Cyclopropyl-6-fluoro-7-[(3R)-3-(methylamino)pyrrolidin-1-yl]-3-({[(3S)-1-(6-methylpyridin-3-yl)piperidin-3-yl][(2-methylpyridin-4-yl)methyl]amino}methyl)-1,4-dihydroquinolin-4-one hydrochloride] |  |  |
| < 1 | < 1 | +++ (+++=ΔTm ≥20° C.) | Cc1ccc(N2CCC[C@H](N(Cc3ccnc(C)c3)Cc3cn(C4CC4)c4cc(N5CCC(O)CC5)c(F)cc4c3=O)C2)cn1.Cl [Example 32, 1-cyclopropyl-6-fluoro-7-(4-hydroxypiperidin-1-yl)-3-({[(3S)-1-(6-methylpyridin-3-yl)piperidin-3-yl][(2-methylpyridin-4-yl)methyl]amino}methyl)-1,4-dihydroquinolin-4-one hydrochloride] |  |  |
| < 1 | < 1 | +++ (+++=ΔTm ≥20° C.) | Cc1ccc(N2CCC[C@H](N(Cc3ccnc(C)c3)Cc3cn(C4CC4)c4cc(N5CCC(F)(CN)C5)c(F)cc4c3=O)C2)cn1 (stereo partly drawn) [Example 30, 7-[3-(aminomethyl)-3-fluoropyrrolidin-1-yl]-1-cyclopropyl-6-fluoro-3-({[(3S)-1-(6-methylpyridin-3-yl)piperidin-3-yl][(2-methylpyridin-4-yl)methyl]amino}methyl)-1,4-dihydroquinolin-4-one] |  |  |

Continued, compound first:

| SMILES | EC50 [1, 4] [µM] | EC50 ([2]; 18 h stimulation, luminescence) [µM] | hSTING FTS binding assay (ΔT C. °) [3] | EC50 ([1]; 18 h) [µM] | EC50 ([2]; 18 h) [µM] |
| --- | --- | --- | --- | --- | --- |
| Cc1cc(CN(Cc2cn(C(C)C)c3cc(N4CC[C@@H](O)C4)ccc3c2=O)[C@H]2CCCN(c3ccnnc3)C2)ccn1 [Example 49, 7-[(3R)-3-hydroxypyrrolidin-1-yl]-3-({[(2-methylpyridin-4-yl)methyl][(3S)-1-(pyridazin-4-yl)piperidin-3-yl]amino}methyl)-1-(propan-2-yl)-1,4-dihydroquinolin-4-one] | > 10 | > 10 | + (+=ΔTm ≤10° C.) |  |  |
| Cc1ccc(N2CCC[C@H](N(Cc3ccnc(C)c3)Cc3cn(CCN)c4ccccc4c3=O)C2)cn1 [Example 18, 1-(2-Aminoethyl)-3-({[(3S)-1-(6-methylpyridin-3-yl)piperidin-3-yl][(2-methylpyridin-4-yl)methyl]amino}methyl)-1,4-dihydroquinolin-4-one] |  |  | + (+=ΔTm ≤10° C.) | 1 to 10 | 1 to 10 |
| Cc1cc(CN(Cc2cn(C)c3ccccc3c2=O)[C@H]2CCCN(c3ccc(N)nc3)C2)ccn1 [Example 2, 3-({[(3S)-1-(6-Aminopyridin-3-yl)piperidin-3-yl][(2-methylpyridin-4-yl)methyl]amino}methyl)-1-methyl-1,4-dihydroquinolin-4-one] | < 1 | < 1 | +++ (+++=ΔTm ≥20° C.) |  |  |
| Cc1ccc(N2CCC[C@H](N(Cc3ccnc(C)c3)Cc3cn(C4CC4)c4cc(N5CCCC(C(=O)O)C5)c(F)cc4c3=O)C2)cn1 (stereo partly drawn) [Example 66, 1-[1-cyclopropyl-6-fluoro-3-({[(3S)-1-(6-methylpyridin-3-yl)piperidin-3-yl][(2-methylpyridin-4-yl)methyl]amino}methyl)-4-oxo-1,4-dihydroquinolin-7-yl]piperidine-3-carboxylic acid] | 1 to 10 | 1 to 10 | +++ (+++=ΔTm ≥20° C.) |  |  |
| Cc1cc(CN(Cc2cn(C)c3cc(N4CCC(C(=O)O)CC4)ccc3c2=O)[C@H]2CCCN(c3cccnc3)C2)ccn1 [Example 46, 1-[1-methyl-3-({[(2-methylpyridin-4-yl)methyl][(3S)-1-(pyridin-3-yl)piperidin-3-yl]amino}methyl)-4-oxo-1,4-dihydroquinolin-7-yl]piperidine-4-carboxylic acid] |  |  | ++ (++=10<ΔTm <20° C.) | > 10 | > 10 |
| Cc1ccc(N2CCC[C@H](N(Cc3ccnc(C)c3)Cc3cn(C)c4cc(N5CC[C@@H](O)C5)ccc4c3=O)C2)cn1 [Example 23, 7-[(3R)-3-hydroxypyrrolidin-1-yl]-1-methyl-3-({[(3S)-1-(6-methylpyridin-3-yl)piperidin-3-yl][(2-methylpyridin-4-yl)methyl]amino}methyl)-1,4-dihydroquinolin-4-one] | < 1 | < 1 | ++ (++=10<ΔTm <20° C.) |  |  |
| Cc1ccc(N2CCC[C@H](N(Cc3ccnc(C)c3)Cc3cn(C4CC4)c4cc(NCCN(C)C)c(F)cc4c3=O)C2)cn1 [Example 9, 1-Cyclopropyl-7-{[2-(dimethylamino)ethyl]amino}-6-fluoro-3-({[(3S)-1-(6-methylpyridin-3-yl)piperidin-3-yl][(2-methylpyridin-4-yl)methyl]amino}methyl)-1,4-dihydroquinolin-4-one] | < 1 | < 1 | +++ (+++=ΔTm ≥20° C.) |  |  |
| Cc1cc(CN(Cc2cn(C(C)C)c3ccccc3c2=O)[C@H]2CCCN(c3ccc(N)nc3)C2)ccn1.Cl [Example 34, 3-({[(3S)-1-(6-aminopyridin-3-yl)piperidin-3-yl][(2-methylpyridinyl-4-yl)methyl]amino}methyl)-1-(propan-2-yl)-1,4-dihydroquinolin-4-one hydrochloride] | < 1 | < 1 | +++ (+++=ΔTm ≥20° C.) |  |  |
